Measurements reported in ChEMBL document CHEMBL3885881, “DrugMatrix”.

Species on record: Rattus norvegicus
Assay: DrugMatrix - Regimen: Daily Repeat
Type: toxicity, organism-based, Sprague-Dawley
Design: regimen Daily Repeat, gender Male, age 6-8 weeks
Conditions: in vivo, iv, vehicle 100 % SALINE; for EOSINOPHIL / ERYTHROCYTE COUNT / HEMATOCRIT / HEMOGLOBIN / LEUKOCYTE COUNT / LYMPHOCYTE / MEAN CORPUSCULAR HEMOGLOBIN / MEAN CORPUSCULAR HEMOGLOBIN CONCENTRATION / MEAN CORPUSCULAR VOLUME / MONOCYTE / NEUTROPHIL / NUCLEATED RED BLOOD CELLS / PLATELET COUNT / ABSOLUTE BASOPHIL / ABSOLUTE EOSINOPHIL / ABSOLUTE LYMPHOCYTE / ABSOLUTE MONOCYTE / ABSOLUTE SEGMENTED NEUTROPHIL / BASOPHIL: tissue Blood; for ALANINE AMINOTRANSFERASE / ALBUMIN / ALKALINE PHOSPHATASE / ASPARTATE AMINOTRANSFERASE / BLOOD UREA NITROGEN / CARBON DIOXIDE / CHLORIDE / CHOLESTEROL / CREATINE PHOSPHOKINASE / CREATININE / GLUCOSE / LACTATE DEHYDROGENASE / LIPASE / PHOSPHORUS / POTASSIUM / SODIUM / TOTAL BILIRUBIN / TOTAL PROTEIN / URIC ACID: tissue Plasma
[1] = 0 mg/kg, 72 h, dose level Control, time 3 day
[2] = 0 mg/kg, 120 h, dose level Control, time 5 day
[3] = 20 mg/kg, 72 h, dose level Low, time 3 day
[4] = 20 mg/kg, 120 h, dose level Low, time 5 day

NCC[C@H](O)C(=O)N[C@@H]1C[C@H](N)[C@@H](O[C@H]2O[C@H](CN)[C@@H](O)[C@H](O)[C@H]2O)[C@H](O)[C@H]1O[C@H]1O[C@H](CO)[C@@H](O)[C@H](N)[C@H]1O [AMIKACIN]
EOSINOPHIL [1]: 0%
ERYTHROCYTE COUNT [1]: 5.38 x10E6/uL
HEMATOCRIT [1]: 33.67%
HEMOGLOBIN [1]: 12.88 G/DL
LEUKOCYTE COUNT [1]: 8.37 x10E3/uL
LYMPHOCYTE [1]: 91.17%
MEAN CORPUSCULAR HEMOGLOBIN [1]: 23.95 pg
MEAN CORPUSCULAR HEMOGLOBIN CONCENTRATION [1]: 38.23 G/DL
MEAN CORPUSCULAR VOLUME [1]: 62.6 fL
MONOCYTE [1]: 0.83%
NEUTROPHIL [1]: 8%
NUCLEATED RED BLOOD CELLS [1]: 0.17 /100WBC
PLATELET COUNT [1]: 865 x10E3/uL
ALANINE AMINOTRANSFERASE [1]: 51.67 u/L
ALBUMIN [1]: 3.97 G/DL
ALKALINE PHOSPHATASE [1]: 351.17 u/L
ASPARTATE AMINOTRANSFERASE [1]: 82.33 u/L
BLOOD UREA NITROGEN [1]: 15.17 mg/dL
CARBON DIOXIDE [1]: 34.5 mmol/L
CHLORIDE [1]: 100 MEQ/L
CHOLESTEROL [1]: 80.33 mg/dL
CREATINE PHOSPHOKINASE [1]: 316.5 u/L
CREATININE [1]: 0.17 mg/dL
GLUCOSE [1]: 149.17 mg/dL
LACTATE DEHYDROGENASE [1]: 105.67 u/L
LIPASE [1]: 9.5 u/L
PHOSPHORUS [1]: 10.87 mg/dL
POTASSIUM [1]: 5.47 MEQ/L
SODIUM [1]: 144.2 MEQ/L
TOTAL BILIRUBIN [1]: 0.2 mg/dL
TOTAL PROTEIN [1]: 5.83 G/DL
URIC ACID [1]: 0.83 mg/dL
ABSOLUTE BASOPHIL [2]: 0 CELLS/uL
ABSOLUTE EOSINOPHIL [2]: 0 CELLS/uL
ABSOLUTE LYMPHOCYTE [2]: 6333.5 CELLS/uL
ABSOLUTE MONOCYTE [2]: 38.83 CELLS/uL
ABSOLUTE SEGMENTED NEUTROPHIL [2]: 661 CELLS/uL
BASOPHIL [2]: 0%
EOSINOPHIL [2]: 0%
ERYTHROCYTE COUNT [2]: 5.44 x10E6/uL
HEMATOCRIT [2]: 34.17%
HEMOGLOBIN [2]: 13.22 G/DL
LEUKOCYTE COUNT [2]: 7.03 x10E3/uL
LYMPHOCYTE [2]: 90.17%
MEAN CORPUSCULAR HEMOGLOBIN [2]: 24.38 pg
MEAN CORPUSCULAR HEMOGLOBIN CONCENTRATION [2]: 38.7 G/DL
MEAN CORPUSCULAR VOLUME [2]: 62.95 fL
MONOCYTE [2]: 0.5%
NEUTROPHIL [2]: 9.33%
NUCLEATED RED BLOOD CELLS [2]: 0 /100WBC
PLATELET COUNT [2]: 924.33 x10E3/uL
ALANINE AMINOTRANSFERASE [2]: 52.5 u/L
ALBUMIN [2]: 3.97 G/DL
ALKALINE PHOSPHATASE [2]: 364.83 u/L
ASPARTATE AMINOTRANSFERASE [2]: 82.5 u/L
BLOOD UREA NITROGEN [2]: 17 mg/dL
CARBON DIOXIDE [2]: 32.33 mmol/L
CHLORIDE [2]: 99.6 MEQ/L
CHOLESTEROL [2]: 75.83 mg/dL
CREATINE PHOSPHOKINASE [2]: 419 u/L
CREATININE [2]: 0.21 mg/dL
GLUCOSE [2]: 155 mg/dL
LACTATE DEHYDROGENASE [2]: 111.5 u/L
LIPASE [2]: 11.33 u/L
PHOSPHORUS [2]: 10.32 mg/dL
POTASSIUM [2]: 5.37 MEQ/L
SODIUM [2]: 144.64 MEQ/L
TOTAL BILIRUBIN [2]: 0.18 mg/dL
TOTAL PROTEIN [2]: 5.98 G/DL
URIC ACID [2]: 0.62 mg/dL
ABSOLUTE BASOPHIL [3]: 0 CELLS/uL
ABSOLUTE EOSINOPHIL [3]: 0 CELLS/uL
ABSOLUTE LYMPHOCYTE [3]: 8480.67 CELLS/uL
ABSOLUTE MONOCYTE [3]: 225.67 CELLS/uL
ABSOLUTE SEGMENTED NEUTROPHIL [3]: 993.67 CELLS/uL
BASOPHIL [3]: 0%
EOSINOPHIL [3]: 0%
ERYTHROCYTE COUNT [3]: 5.64 x10E6/uL
HEMATOCRIT [3]: 34.43%
HEMOGLOBIN [3]: 13 G/DL
LEUKOCYTE COUNT [3]: 9.7 x10E3/uL
LYMPHOCYTE [3]: 88%
MEAN CORPUSCULAR HEMOGLOBIN [3]: 23.03 pg
MEAN CORPUSCULAR HEMOGLOBIN CONCENTRATION [3]: 37.77 G/DL
MEAN CORPUSCULAR VOLUME [3]: 61 fL
MONOCYTE [3]: 2.33%
NEUTROPHIL [3]: 9.67%
NUCLEATED RED BLOOD CELLS [3]: 0.33 /100WBC
PLATELET COUNT [3]: 903.33 x10E3/uL
ALANINE AMINOTRANSFERASE [3]: 53.67 u/L
ALBUMIN [3]: 4.13 G/DL
ALKALINE PHOSPHATASE [3]: 308.67 u/L
ASPARTATE AMINOTRANSFERASE [3]: 82.33 u/L
BLOOD UREA NITROGEN [3]: 14 mg/dL
CARBON DIOXIDE [3]: 35.67 mmol/L
CHLORIDE [3]: 99 MEQ/L
CHOLESTEROL [3]: 77.33 mg/dL
CREATINE PHOSPHOKINASE [3]: 320 u/L
CREATININE [3]: 0.17 mg/dL
GLUCOSE [3]: 145.67 mg/dL
LACTATE DEHYDROGENASE [3]: 98 u/L
LIPASE [3]: 9.33 u/L
PHOSPHORUS [3]: 11.1 mg/dL
POTASSIUM [3]: 6.07 MEQ/L
SODIUM [3]: 144.47 MEQ/L
TOTAL BILIRUBIN [3]: 0.2 mg/dL
TOTAL PROTEIN [3]: 6.03 G/DL
URIC ACID [3]: 0.9 mg/dL
ABSOLUTE BASOPHIL [4]: 0 CELLS/uL
ABSOLUTE EOSINOPHIL [4]: 0 CELLS/uL
ABSOLUTE LYMPHOCYTE [4]: 3175.67 CELLS/uL
